Experimental data published in ChEMBL document CHEMBL1157907, “Synthesis and anti-tumor activities of methyl 2-O-aryl-6-O-aryl'-D-glucopyranosides” (Bioorg Med Chem Lett, 2010).
pEC50: −log10 of the molar value.

Key:
MDA-MB-231 [1] = experiment: Cytotoxicity against human MDA-MB-231 cells after 48 hrs by MTT assay; type: functional, cell-based; conditions: MDA-MB-231, 48 h
A549 [2] = experiment: Cytotoxicity against human A549 cells after 48 hrs by MTT assay; type: functional, cell-based; conditions: A549, 48 h
HeLa [3] = experiment: Cytotoxicity against human HeLa cells after 48 hrs by MTT assay; type: functional, cell-based
MDA-MB-231 [4] = experiment: Cytotoxicity against human MDA-MB-231 cells up to 50 uM after 48 hrs by MTT assay; type: functional, cell-based
HeLa [5] = experiment: Cytotoxicity against human HeLa cells up to 50 uM after 48 hrs by MTT assay; type: functional, cell-based
A549 [6] = experiment: Cytotoxicity against human A549 cells up to 50 uM after 48 hrs by MTT assay; type: functional, cell-based
MDA-MB-231 [7] = experiment: Drug uptake in human MDA-MB-231 cells at 10 uM; type: ADME, cell-based; conditions: mda-mb-231, 10 µM
MDA-MB-435 [8] = experiment: Cytotoxicity against human MDA-MB-435 cells at 20 uM after 48 hrs by MTT assay; type: functional; conditions: MDA-MB-435, 48 h
MCF7 [9] = experiment: Cytotoxicity against human MCF7 cells at 20 uM after 48 hrs by MTT assay; type: functional; conditions: MCF7, 48 h
MDA-MB-231 [10] = experiment: Cytotoxicity against human MDA-MB-231 cells at 20 uM after 48 hrs by MTT assay; type: functional; conditions: MDA-MB-231, 48 h
MCF7 [11] = experiment: Cytotoxicity against human MCF7 cells after 48 hrs by MTT assay; type: functional, cell-based; conditions: MCF7, 48 h
MDA-MB-435 [12] = experiment: Cytotoxicity against human MDA-MB-435 cells after 48 hrs by MTT assay; type: functional, cell-based; conditions: MDA-MB-435, 48 h

| Compound | pEC50 (MDA-MB-231 [1]) | pEC50 (A549 [2]) | pEC50 (HeLa [3]) | inhibition at 20 µM (MDA-MB-435 [8]) | inhibition at 20 µM (MCF7 [9]) | inhibition at 20 µM (MDA-MB-231 [10]) | other results |
| --- | --- | --- | --- | --- | --- | --- | --- |
| CO[C@H]1O[C@H](COc2ccc(C3CCCCC3)cc2)[C@@H](O)[C@H](O)[C@H]1Oc1cccc2c1CCCC2 | 4.43 | 4.55 | 4.60 | – | – | – | – |
| COc1ccc(OC[C@H]2O[C@H](OC)[C@H](Oc3ccc(OC4CCCCC4)cc3)[C@@H](O)[C@@H]2O)cc1OC | – | – | – | – | – | – | EC50 (MDA-MB-231 [4]): Not Active; EC50 (HeLa [5]): Not Active; EC50 (A549 [6]): Not Active |
| CO[C@H]1O[C@H](COc2ccc(C3CCCCC3)cc2)[C@@H](O)[C@H](O)[C@H]1Oc1ccc(OC2CCCCC2)cc1 | 4.85 | 4.92 | 5.00 | – | – | – | Drug uptake (MDA-MB-231 [7]): Not Active |
| CO[C@@H]1O[C@H](COc2ccccc2C(C)C)[C@@H](O)[C@H](O)[C@H]1Oc1ccc(OC2CCCCC2)cc1 | 4.36 | 4.39 | 4.38 | – | – | – | – |
| CO[C@H]1O[C@H](COc2ccccc2C(C)C)[C@@H](O)[C@H](O)[C@H]1Oc1ccc(OC2CCCCC2)cc1 | 4.44 | 4.48 | 4.33 | – | – | – | – |
| CO[C@@H]1O[C@H](COc2cccc(C(C)C)c2)[C@@H](O)[C@H](O)[C@H]1Oc1ccc(OC2CCCCC2)cc1 | 4.40 | 4.39 | 4.41 | – | – | – | – |
| CO[C@H]1O[C@H](COc2cccc(C(C)C)c2)[C@@H](O)[C@H](O)[C@H]1Oc1ccc(OC2CCCCC2)cc1 | 4.42 | 4.52 | 4.55 | – | – | – | – |
| CO[C@H]1O[C@H](COc2ccccc2)[C@@H](O)[C@H](O)[C@H]1Oc1ccc2c(c1)-c1ccccc1S2(=O)=O | – | – | – | 4% | 7% | 2% | – |
| CO[C@@H]1O[C@H](COc2ccccc2)[C@@H](O)[C@H](O)[C@H]1Oc1ccc2c(c1)-c1ccccc1S2(=O)=O | – | – | – | 0% | 7% | -16% | – |
| CO[C@H]1O[C@H](COc2ccc(-c3ccccc3)cc2)[C@@H](O)[C@H](O)[C@H]1Oc1ccc2c(c1)-c1ccccc1S2(=O)=O | – | – | – | 12% | 15% | 29% | – |
| CO[C@H]1O[C@H](COc2cccc3c2CCCC3)[C@@H](O)[C@H](O)[C@H]1Oc1ccc2c(c1)-c1ccccc1S2(=O)=O | – | – | – | -5% | 4% | -8% | – |
| COc1ccc(OC[C@H]2O[C@@H](OC)[C@H](Oc3ccc(OC4CCCCC4)cc3)[C@@H](O)[C@@H]2O)cc1OC | – | – | – | – | – | – | EC50 (MDA-MB-231 [4]): Not Active; EC50 (HeLa [5]): Not Active; EC50 (A549 [6]): Not Active |
| CO[C@H]1O[C@H](COc2ccc3c(c2)CCCC3)[C@@H](O)[C@H](O)[C@H]1Oc1ccc2c(c1)-c1ccccc1S2(=O)=O | – | – | – | 17% | 2% | 30% | – |
| CO[C@@H]1O[C@H](COc2ccc3c(c2)CCCC3)[C@@H](O)[C@H](O)[C@H]1Oc1ccc2c(c1)-c1ccccc1S2(=O)=O | – | – | – | -4% | 7% | 14% | – |
| CO[C@H]1O[C@H](COc2ccc(-c3ccccc3)cc2)[C@@H](O)[C@H](O)[C@H]1Oc1ccccc1C(C)C | 4.47 | 4.48 | 4.54 | – | – | – | – |
| CO[C@H]1O[C@H](COc2ccc(-c3ccccc3)cc2)[C@@H](O)[C@H](O)[C@H]1Oc1ccccc1 | – | 4.44 | 4.48 | – | – | – | EC50 (A549 [6]): Not Active |
| CO[C@@H]1O[C@H](COc2ccc(-c3ccccc3)cc2)[C@@H](O)[C@H](O)[C@H]1Oc1cccc(C(C)C)c1 | 4.46 | 4.46 | 4.49 | – | – | – | – |
| CO[C@H]1O[C@H](COc2ccc(-c3ccccc3)cc2)[C@@H](O)[C@H](O)[C@H]1Oc1cccc(C(C)C)c1 | 4.52 | 4.49 | 4.46 | – | – | – | – |

| Compound | pEC50 (MDA-MB-231 [1]) | pEC50 (A549 [2]) | pEC50 (HeLa [3]) | inhibition at 20 µM (MDA-MB-435 [8]) | inhibition at 20 µM (MCF7 [9]) | inhibition at 20 µM (MDA-MB-231 [10]) | other results |
| --- | --- | --- | --- | --- | --- | --- | --- |
| CO[C@H]1O[C@H](COc2ccc(-c3ccccc3)cc2)[C@@H](O)[C@H](O)[C@H]1Oc1ccc(C(C)C)cc1 | 4.51 | 4.49 | 4.72 | – | – | – | – |
| CO[C@@H]1O[C@H](COc2ccc(OC3CCCCC3)cc2)[C@@H](O)[C@H](O)[C@H]1Oc1ccc(C(C)C)cc1 | 4.46 | 4.49 | 4.59 | – | – | – | – |
| CO[C@H]1O[C@H](COc2ccc(OC3CCCCC3)cc2)[C@@H](O)[C@H](O)[C@H]1Oc1ccc(C(C)C)cc1 | 4.60 | 4.57 | 4.74 | – | – | – | – |
| COc1cc(OC)cc(OC[C@H]2O[C@H](OC)[C@H](Oc3ccc(OC4CCCCC4)cc3)[C@@H](O)[C@@H]2O)c1 | – | – | – | – | – | – | EC50 (MDA-MB-231 [4]): Not Active; EC50 (HeLa [5]): Not Active; EC50 (A549 [6]): Not Active |
| CO[C@H]1O[C@H](COc2ccc(C3CCCCC3)cc2)[C@@H](OC)[C@H](OC)[C@H]1Oc1ccc(OC2CCCCC2)cc1 | – | – | – | – | – | – | EC50 (MDA-MB-231 [4]): Not Active; EC50 (HeLa [5]): Not Active; EC50 (A549 [6]): Not Active |
| CO[C@@H]1O[C@H](COc2ccc(OC3CCCCC3)cc2)[C@@H](O)[C@H](O)[C@H]1Oc1ccc(OC2CCCCC2)cc1 | 4.59 | 4.60 | 4.85 | – | – | – | – |
| CO[C@H]1O[C@H](COc2ccc(OC3CCCCC3)cc2)[C@@H](O)[C@H](O)[C@H]1Oc1ccc(OC2CCCCC2)cc1 | 4.70 | 4.74 | 4.85 | – | – | – | – |
| CO[C@@H]1O[C@H](COc2ccc3c(c2)CCCC3)[C@@H](O)[C@H](O)[C@H]1Oc1cccc(C(C)C)c1 | – | – | – | – | – | – | EC50 (MDA-MB-231 [4]): Not Active; EC50 (HeLa [5]): Not Active; EC50 (A549 [6]): Not Active |
| CO[C@H]1O[C@H](COc2ccc3c(c2)CCCC3)[C@@H](O)[C@H](O)[C@H]1Oc1cccc(C(C)C)c1 | – | 4.40 | 4.48 | – | – | – | EC50 (A549 [6]): Not Active |
| CO[C@H]1O[C@H](COc2ccc(C3CCCCC3)cc2)[C@@H](O)[C@H](O)[C@H]1Oc1ccc2c(c1)CCCC2 | 4.60 | 4.77 | 4.54 | – | – | – | – |
| CO[C@@H]1O[C@H](COc2ccc3c(c2)CCCC3)[C@@H](O)[C@H](O)[C@H]1Oc1ccc(OC2CCCCC2)cc1 | – | – | – | 1% | 14% | 0% | – |
| CO[C@@H]1O[C@H](COc2ccc(-c3ccccc3)cc2)[C@@H](O)[C@H](O)[C@H]1Oc1ccc(OC2CCCCC2)cc1 | 4.44 | – | – | 30% | 51% | 64% | pEC50 (MCF7 [11]): 4.74; pEC50 (MDA-MB-435 [12]): 4.59 |
| CO[C@H]1O[C@H](COc2cccc3c2CCCC3)[C@@H](O)[C@H](O)[C@H]1Oc1ccc(OC2CCCCC2)cc1 | – | – | – | -1% | 3% | -8% | – |
| CO[C@H]1O[C@H](COc2ccccc2)[C@@H](O)[C@H](O)[C@H]1Oc1ccc(OC2CCCCC2)cc1 | – | – | – | -8% | -9% | -11% | – |
| CO[C@H]1O[C@H](COc2ccc3c(c2)CCCC3)[C@@H](O)[C@H](O)[C@H]1Oc1ccc(OC2CCCCC2)cc1 | 4.70 | – | – | 16% | 45% | 24% | pEC50 (MCF7 [11]): 4.77; pEC50 (MDA-MB-435 [12]): 4.59 |
| CO[C@@H]1O[C@H](COc2ccccc2)[C@@H](O)[C@H](O)[C@H]1Oc1ccc(OC2CCCCC2)cc1 | – | – | – | 14% | -5% | -9% | – |
| C=CCO[C@@H]1[C@@H](Oc2ccc(OC3CCCCC3)cc2)[C@@H](OC)O[C@H](COc2ccc(C3CCCCC3)cc2)[C@H]1OCC=C | – | – | – | – | – | – | EC50 (MDA-MB-231 [4]): Not Active; EC50 (HeLa [5]): Not Active; EC50 (A549 [6]): Not Active |
| CO[C@H]1O[C@H](COc2ccc(C3CCCCC3)cc2)[C@@H](OCc2ccccc2)[C@H](OCc2ccccc2)[C@H]1Oc1ccc(OC2CCCCC2)cc1 | – | – | – | – | – | – | EC50 (MDA-MB-231 [4]): Not Active; EC50 (HeLa [5]): Not Active; EC50 (A549 [6]): Not Active |
